Legend:
Format in all cases: cell-based
[1] = system: CCRF-CEM; assay: NCI-60 one-dose SRB screen (Leukemia); details: Homo sapiens, single dose 10 µM, 48 h, read-out: Growth inhibition percent (GI %)
Protocol: (§1) The National Cancer Institute (NCI) Developmental Therapeutic Program (www.dtp.nci.nih.gov) selected the 20 novel synthesized compounds 4a-e, 5a-e, 6a-c, 9a-e, 10 and 11 to test for their anticancer activity at a single dose of 10 µM using SRB assay. […] Supplementary Data S3; Table S1 presents the detailed screening results of the most promising compounds. The preliminary screening’s detailed results for the remaining compounds are elucidated in the (Supplementary Data S3; Table S2).
(§2) The guidelines of the Drug Evaluation Branch’s protocol at the NCI in Bethesda served as the basis for the in vitro anticancer screening assays. at one dose 10 µM against a panel of 60 cancer cell lines. The human tumor cell lines used belonged to nine panels: leukemia, melanoma, lung, colon, CNS, ovarian, renal, prostate and breast cancers using the sulforhodamine B (SRB) assay in a 48 h drug exposure protocol.

[2] = system: HL-60(TB); assay: NCI-60 one-dose SRB screen (Leukemia); details: Homo sapiens, single dose 10 µM, 48 h, read-out: Growth inhibition percent (GI %)
Protocol: as §1, §2

[3] = system: K-562; assay: NCI-60 one-dose SRB screen (Leukemia); details: Homo sapiens, K562, single dose 10 µM, 48 h, read-out: Growth inhibition percent (GI %)
Protocol: as §1, §2

[4] = system: MOLT-4; assay: NCI-60 one-dose SRB screen (Leukemia); details: Homo sapiens, single dose 10 µM, 48 h, read-out: Growth inhibition percent (GI %)
Protocol: as §1, §2

[5] = system: RPMI-8226; assay: NCI-60 one-dose SRB screen (Leukemia); details: Homo sapiens, single dose 10 µM, 48 h, read-out: Growth inhibition percent (GI %)
Protocol: as §1, §2

[6] = system: SR; assay: NCI-60 one-dose SRB screen (Leukemia); details: Homo sapiens, single dose 10 µM, 48 h, read-out: Growth inhibition percent (GI %)
Protocol: as §1, §2

[7] = system: A549/ATCC; assay: NCI-60 one-dose SRB screen (Non-Small Cell Lung Cancer); details: Homo sapiens, single dose 10 µM, 48 h, read-out: Growth inhibition percent (GI %)
Protocol: as §1, §2

[8] = system: EKVX; assay: as above; details: Homo sapiens, single dose 10 µM, 48 h, read-out: Growth inhibition percent (GI %)
Protocol: as §1, §2

[9] = system: HOP-62; assay: as above; details: Homo sapiens, single dose 10 µM, 48 h, read-out: Growth inhibition percent (GI %)
Protocol: as §1, §2

[10] = system: HOP-92; assay: as above; details: Homo sapiens, single dose 10 µM, 48 h, read-out: Growth inhibition percent (GI %)
Protocol: as §1, §2

[11] = system: NCI-H226; assay: as above; details: Homo sapiens, single dose 10 µM, 48 h, read-out: Growth inhibition percent (GI %)
Protocol: as §1, §2

[12] = system: NCI-H23; assay: as above; details: Homo sapiens, single dose 10 µM, 48 h, read-out: Growth inhibition percent (GI %)
Protocol: as §1, §2

[13] = system: NCI-H322M; assay: as above; details: Homo sapiens, single dose 10 µM, 48 h, read-out: Growth inhibition percent (GI %)
Protocol: as §1, §2

[14] = system: NCI-H460; assay: as above; details: Homo sapiens, single dose 10 µM, 48 h, read-out: Growth inhibition percent (GI %)
Protocol: as §1, §2

[15] = system: NCI-H522; assay: as above; details: Homo sapiens, single dose 10 µM, 48 h, read-out: Growth inhibition percent (GI %)
Protocol: as §1, §2

[16] = system: COLO 205; assay: NCI-60 one-dose SRB screen (Colon Cancer); details: Homo sapiens, single dose 10 µM, 48 h, read-out: Growth inhibition percent (GI %)
Protocol: as §1, §2

[17] = system: HCC-2998; assay: NCI-60 one-dose SRB screen (Colon Cancer); details: Homo sapiens, single dose 10 µM, 48 h, read-out: Growth inhibition percent (GI %)
Protocol: as §1, §2

[18] = system: HCT-116; assay: NCI-60 one-dose SRB screen (Colon Cancer); details: Homo sapiens, single dose 10 µM, 48 h, read-out: Growth inhibition percent (GI %)
Protocol: as §1, §2

[19] = system: HCT-15; assay: NCI-60 one-dose SRB screen (Colon Cancer); details: Homo sapiens, single dose 10 µM, 48 h, read-out: Growth inhibition percent (GI %)
Protocol: as §1, §2

[20] = system: HT29; assay: NCI-60 one-dose SRB screen (Colon Cancer); details: Homo sapiens, HT-29, single dose 10 µM, 48 h, read-out: Growth inhibition percent (GI %)
Protocol: as §1, §2

[21] = system: KM12; assay: NCI-60 one-dose SRB screen (Colon Cancer); details: Homo sapiens, single dose 10 µM, 48 h, read-out: Growth inhibition percent (GI %)
Protocol: as §1, §2

[22] = system: SW-620; assay: NCI-60 one-dose SRB screen (Colon Cancer); details: Homo sapiens, single dose 10 µM, 48 h, read-out: Growth inhibition percent (GI %)
Protocol: as §1, §2

[23] = system: SF-268; assay: NCI-60 one-dose SRB screen (CNS Cancer); details: Homo sapiens, single dose 10 µM, 48 h, read-out: Growth inhibition percent (GI %)
Protocol: as §1, §2

[24] = system: SF-295; assay: NCI-60 one-dose SRB screen (CNS Cancer); details: Homo sapiens, single dose 10 µM, 48 h, read-out: Growth inhibition percent (GI %)
Protocol: as §1, §2

[25] = system: SF-539; assay: NCI-60 one-dose SRB screen (CNS Cancer); details: Homo sapiens, single dose 10 µM, 48 h, read-out: Growth inhibition percent (GI %)
Protocol: as §1, §2

[26] = system: SNB-19; assay: NCI-60 one-dose SRB screen (CNS Cancer); details: Homo sapiens, single dose 10 µM, 48 h, read-out: Growth inhibition percent (GI %)
Protocol: as §1, §2

[27] = system: SNB-75; assay: NCI-60 one-dose SRB screen (CNS Cancer); details: Homo sapiens, single dose 10 µM, 48 h, read-out: Growth inhibition percent (GI %)
Protocol: as §1, §2

[28] = system: U251; assay: NCI-60 one-dose SRB screen (CNS Cancer); details: Homo sapiens, U-251, single dose 10 µM, 48 h, read-out: Growth inhibition percent (GI %)
Protocol: as §1, §2

[29] = system: LOX IMVI; assay: NCI-60 one-dose SRB screen (Melanoma); details: Homo sapiens, single dose 10 µM, 48 h, read-out: Growth inhibition percent (GI %)
Protocol: as §1, §2

With NS(=O)(=O)c1ccc(NC(=O)COC(=O)c2cn(-c3ccc(S(N)(=O)=O)cc3)nc2-c2ccccc2)cc1 [Compound 4a, 2-Oxo-2-[(4-sulfamoylphenyl)amino] ethyl 3-phenyl-1-(4-sulfamoylphenyl)-1H-pyrazole-4-carboxylate] the inhibition at 10 µM [1] was < 5%, the inhibition at 10 µM [2] was 16.6% and the inhibition at 10 µM [3] was 16.7%. The inhibition at 10 µM [4] was < 5%, the inhibition at 10 µM [5] was < 5% and the inhibition at 10 µM [6] was < 5%. The inhibition at 10 µM [7] was < 5%, the inhibition at 10 µM [8] was < 5% and the inhibition at 10 µM [9] was < 5%. The inhibition at 10 µM [10] was < 5%, the inhibition at 10 µM [11] was < 5% and the inhibition at 10 µM [12] was < 5%. For the same compound, the inhibition at 10 µM [13] was < 5%, the inhibition at 10 µM [14] was < 5% and the inhibition at 10 µM [15] was < 5%. The inhibition at 10 µM [16] was < 5%, the inhibition at 10 µM [17] was < 5% and the inhibition at 10 µM [18] was 27.8%. For the same compound, the inhibition at 10 µM [19] was < 5%, the inhibition at 10 µM [20] was < 5% and the inhibition at 10 µM [21] was < 5%. The inhibition at 10 µM [22] was < 5%, the inhibition at 10 µM [23] was < 5% and the inhibition at 10 µM [24] was < 5%. The inhibition at 10 µM [25] was < 5%, the inhibition at 10 µM [26] was < 5% and the inhibition at 10 µM [27] was 31.1%. The inhibition at 10 µM [28] was < 5% and the inhibition at 10 µM [29] was < 5%.
